# Reference: patent US6406900B1, “Flea protease proteins, nucleic acid molecules and uses thereof” (Heska Corporation, priority 1991, dated 2002)
# Test system: flea serine proteases
# Assay: in vitro inhibition of flea protease activity
# Format: biochemical
# From the text: In one embodiment, a protease inhibitor that can be used in a composition of the present invention to treat an animal is identified by a method including the following steps: (a) identifying candidate (i.e., putative, possible) inhibitor compounds by testing the efficacy of one or more protease inhibitors (i) in vitro for their ability to inhibit flea protease activity and/or (ii) in a flea feeding assay for their ability to reduce the survival and/or fecundity of fleas by adding the inhibitors to the blood meal of a flea being maintained, for example, in a feeding system, such as that described by Wade et al., 1988, J. Med Entomol. 25, 186-190; and (b) testing the efficacy of the candidate inhibitor compounds in animals infested with fleas. […] Furthermore, candidate inhibitor compounds identified by the flea feeding assays can include not only desired compounds but also compounds that reduce the viability and/or fecundity of fleas due to general toxicity (e.g., affecting the mitochondria of fleas).
substance,measurement,setting,value
aprotinin,inhibition of flea serine proteases in the presence of serum proteins,"in the presence of serum proteins, such as are found in the blood",does not work well
same,inhibition of flea serine proteases,in vitro,can inhibit at least some flea serine proteases in vitro
